From US11807649B2, “Fused tetracyclic quinazoline derivatives as inhibitors of ErbB2” (EnLiven Therapeutics, Inc., priority 2021, dated 2023)
Read-outs that look alike come from different tables or passages of the source.

Assays:
Type in all cases: cell-based
[1] = tested on: Ba/F3 ERBB2 YVMA; assay: Cell viability assay (CellTiter Glo), Ba/F3 cells engineered to express ERBB2 YVMA; details: Mus musculus, BaF3, 72 h
[2] = molecular target: phosphorylated ERBB2 (pERBB2) (Homo sapiens (Human), UniProt P04626); assay: Detection of phosphorylated ERBB2 (pERBB2) by ELISA in BT-474 cells; details: four hours incubation with compound
phosphorylated ERBB2 (pERBB2), sequence (P04626 23-1255): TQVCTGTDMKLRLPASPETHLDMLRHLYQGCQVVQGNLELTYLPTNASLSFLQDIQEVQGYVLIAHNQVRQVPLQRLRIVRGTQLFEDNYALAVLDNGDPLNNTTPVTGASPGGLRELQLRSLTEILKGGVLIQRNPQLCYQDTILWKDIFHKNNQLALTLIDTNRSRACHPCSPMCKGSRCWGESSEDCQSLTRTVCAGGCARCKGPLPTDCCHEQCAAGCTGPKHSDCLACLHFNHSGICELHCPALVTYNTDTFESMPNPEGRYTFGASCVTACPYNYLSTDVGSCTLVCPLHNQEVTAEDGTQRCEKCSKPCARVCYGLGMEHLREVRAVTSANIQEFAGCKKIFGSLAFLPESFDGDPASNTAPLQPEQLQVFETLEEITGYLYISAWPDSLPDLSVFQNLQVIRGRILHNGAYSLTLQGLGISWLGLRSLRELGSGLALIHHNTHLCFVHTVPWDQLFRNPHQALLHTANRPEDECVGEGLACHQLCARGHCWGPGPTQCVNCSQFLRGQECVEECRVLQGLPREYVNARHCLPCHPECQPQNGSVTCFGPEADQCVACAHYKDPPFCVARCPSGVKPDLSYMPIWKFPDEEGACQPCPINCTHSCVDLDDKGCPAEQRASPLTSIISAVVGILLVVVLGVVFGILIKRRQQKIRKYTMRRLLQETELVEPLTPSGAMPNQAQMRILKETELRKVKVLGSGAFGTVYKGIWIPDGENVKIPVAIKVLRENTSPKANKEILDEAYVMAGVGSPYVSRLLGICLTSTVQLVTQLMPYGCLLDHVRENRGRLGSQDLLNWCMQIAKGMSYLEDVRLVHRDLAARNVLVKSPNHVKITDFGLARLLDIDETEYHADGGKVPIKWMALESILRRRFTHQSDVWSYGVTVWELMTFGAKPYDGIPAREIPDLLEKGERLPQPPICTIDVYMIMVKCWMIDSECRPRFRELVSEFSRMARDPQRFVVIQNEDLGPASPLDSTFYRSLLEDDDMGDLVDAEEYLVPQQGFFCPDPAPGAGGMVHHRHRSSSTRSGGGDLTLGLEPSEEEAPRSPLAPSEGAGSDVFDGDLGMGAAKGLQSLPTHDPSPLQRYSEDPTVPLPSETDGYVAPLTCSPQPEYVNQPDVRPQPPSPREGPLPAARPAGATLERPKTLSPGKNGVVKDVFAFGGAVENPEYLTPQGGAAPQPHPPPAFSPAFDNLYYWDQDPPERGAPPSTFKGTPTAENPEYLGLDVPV
Method: BT-474 cells were seeded into a 96-well at 2.0*10^4 cells/100 μl/well. Compounds were dissolved and serially diluted in DMSO. The compounds were then were added, mixed, and incubated for four hours at 37° C., 5% CO2. […] Following the four hour incubation with compounds, cell lysates were prepared. Plates were centrifuged for 5 min at 3000 RPM, and supernatant was removed from each well. Cells were washed 3 times by resuspension in 150 μl PBS, followed by centrifugation and removal of the supernatant, as above. 100 μl of cell lysis buffer (Boston BioProducts, cat #BP-115D) supplied with 1× complete ULTRA cocktail inhibitor (Thermo ScientificTM, cat #78443) was then added to the washed cells. Cells were incubated with lysis buffer for 1 hour at 4° C., and then stored at -80° C. Enzyme-linked immunosorbent assays (ELISA) were performed to measure phosphorylated ERBB2 levels. […] The next day, plates were washed with PBS+0.05% Tween20 (PBST). 150 μl of 5% BSA blocking solution was added for 1 hour at room temperature, with shaking. Plates were washed with PB ST. Cell lysates were thawed and 100 μl of lysate was added to the ELISA plate. The plates were incubated for 2 hours at room temperature, with shaking. ELISA plates were then washed with PBST and 100 μl of an HRP-labeled detection antibody that binds phosphorylated tyrosine (R&D Systems, cat #841913) was added to each well. Plates were incubated for 1 hour at room temperature, with shaking. Plates were then washed with PBST, and 100 μl TMB substrate solution (R&D Systems, cat #DY999) was added. Plate were incubated in the dark for 20 minutes at room temperature. 50 μl of Stop solution (R&D Systems, cat #DY994) (50 μl) was added to each well and mixed. […] The remaining kinase activity by calculated using the following formula: % Relative activity=100×([…]). The low and high control values (“LC” and “HC”) were generated from lysate from wells without cells or with cells treated with 0.1% DMSO, respectively.

[3] = molecular target: phosphorylated EGFR (pEGFR) (Homo sapiens (Human), UniProt P00533); assay: Detection of phosphorylated EGFR (pEGFR) in EGF-stimulated A431 cells (AlphaLISA); details: A431 cells (10% FBS), 4 hours incubation, then EGF 30 ng/mL for 10 minutes
phosphorylated EGFR (pEGFR), sequence (P00533 25-1210): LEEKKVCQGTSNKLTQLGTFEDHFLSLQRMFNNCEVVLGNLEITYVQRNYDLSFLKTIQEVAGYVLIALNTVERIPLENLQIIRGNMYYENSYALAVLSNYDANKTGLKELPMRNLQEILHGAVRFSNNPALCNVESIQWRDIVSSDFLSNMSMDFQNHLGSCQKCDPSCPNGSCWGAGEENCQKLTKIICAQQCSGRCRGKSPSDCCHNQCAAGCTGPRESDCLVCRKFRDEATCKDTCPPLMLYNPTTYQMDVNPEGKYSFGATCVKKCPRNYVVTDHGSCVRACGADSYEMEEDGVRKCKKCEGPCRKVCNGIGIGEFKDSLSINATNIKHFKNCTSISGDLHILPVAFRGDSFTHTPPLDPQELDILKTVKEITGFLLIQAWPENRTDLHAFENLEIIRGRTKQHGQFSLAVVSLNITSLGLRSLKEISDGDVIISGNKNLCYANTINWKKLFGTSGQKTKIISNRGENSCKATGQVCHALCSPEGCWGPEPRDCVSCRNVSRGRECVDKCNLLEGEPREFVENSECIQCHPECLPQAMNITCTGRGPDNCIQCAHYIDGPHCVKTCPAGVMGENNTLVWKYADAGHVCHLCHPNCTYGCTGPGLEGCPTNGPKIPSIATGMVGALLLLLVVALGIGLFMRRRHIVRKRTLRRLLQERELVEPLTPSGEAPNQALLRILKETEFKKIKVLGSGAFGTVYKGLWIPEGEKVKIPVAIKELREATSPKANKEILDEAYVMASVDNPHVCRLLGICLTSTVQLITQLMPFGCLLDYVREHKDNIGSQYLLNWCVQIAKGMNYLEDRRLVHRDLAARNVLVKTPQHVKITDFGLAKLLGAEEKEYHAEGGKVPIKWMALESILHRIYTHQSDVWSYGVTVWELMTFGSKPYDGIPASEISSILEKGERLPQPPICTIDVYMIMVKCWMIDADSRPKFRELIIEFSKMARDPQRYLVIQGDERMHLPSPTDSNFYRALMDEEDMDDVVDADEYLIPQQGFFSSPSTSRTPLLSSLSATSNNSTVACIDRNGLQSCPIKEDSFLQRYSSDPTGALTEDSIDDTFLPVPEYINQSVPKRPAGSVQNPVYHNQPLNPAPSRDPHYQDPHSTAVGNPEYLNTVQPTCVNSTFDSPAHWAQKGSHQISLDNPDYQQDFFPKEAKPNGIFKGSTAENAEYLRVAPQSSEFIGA
Method: […] were performed to measure phosphorylated EGFR levels using A431 cells (10% FBS). A431 (1.0*10^4 cells/40 μl/well) cells were seeded in 384 well. Compounds were dissolved in DMSO, serially diluted in DMSO and then were added, mixed, and incubated for 4 hours at 37° C., 5% CO2. Following the 4-hours incubation, cells were stimulated for 10 minutes with EGF (Invitrogen, cat #PHG0311) at a final concentration of 30 ng/mL in the incubator. The media was aspirated and cells were lysed in […] lysis buffer with protease and phosphatase inhibitors (PerkinElmer, cat #ALSU-PEGFR-A50K). The plates were placed on a shaker for 5 minutes and then incubated for 30 min at 4° C. for complete lysis. The lysate was transferred to an Optiplate (Perkin Elmer, cat #6007290).
Acceptor mix (PerkinElmer, cat #ALSU-PEGFR-A50K) was prepared just before use and 5 μL was dispensed to all the wells, followed by a 1.5-2 h incubation at room temperature in dark. The donor mix (PerkinElmer, cat #ALSU-PEGFR-A50K) was prepared under low light conditions prior to use and […] of donor mix was added to all the wells under subdued lighting or green filters. The plates were placed on a shaker for 5 min, sealed, and incubated overnight at room temperature in dark. Plates were read on the Envision (PerkinElmer) using standard AlphaLISA settings.
The percentage of inhibition on EGFR phosphorylation was calculated following equation: % Inhibition=100×(LumHC−LumSample)/(LumHC−LumLC). The low and high controls (LC/HC) are generated from lysate from wells with cells treated with DMSO or […] Staurosporine (BioAustralis, cat #BIA-S1086), […]. IC50 values were calculated by fitting the Curve using XLfit (v5.3.1.3), equation 201: Y=Bottom+(Top−Bottom)/(1+10^((Log IC50−X)*HillSlope)).

[4] = Ba/F3 cells expressing human ERBB2 YVMA mutant, 72 hours, cell viability, CellTiter Glo, read-out: Ba/F3 ERBB2 YVMA, IC50
[5] = read-out: Ba/F3 ERBB2 YVMA, IC50, nM

Compound | IC50 [1, 4] [nM] | IC50 [2] [nM] | IC50 [3] [nM] | IC50 [1, 5] [nM]
Cc1cc(Nc2ncnc3cc4c(nc23)N2CCCN(C(=O)/C=C/CN(C)C)C(CO4)C2)ccc1Oc1ccn2ncnc2c1 (racemic) [Compound 54, (E)-1-(4-((4-([1,2,4]triazolo[1,5-a]pyridin-7-yloxy)-3-methylphenyl)amino)-8,9,11,12-tetrahydro-6,11-methanopyrimido[4′,5′:5,6]pyrido[3,2-b][1,4,8]oxadiazecin-10(7H)-yl)-4-(dimethylamino)but-2-en-1-one] | 8.66 | 29.2 | > 10000 | –
C=CC(=O)N1CCN2C[C@H]1COc1cc3ncnc(Nc4ccc(Cc5ccn6ncnc6c5)c(C)c4)c3nc12 [Compound 13, 1-((10S)-4-((4-([1,2,4]triazolo[1,5-a]pyridin-7-ylmethyl)-3-methylphenyl)amino)-7,8,10,11-tetrahydro-9H-6,10-methanopyrimido[4′,5′:5,6]pyrido[3,2-b][1,4,7]oxadiazonin-9-yl)prop-2-en-1-one] | – | 15.8 | 1580 | 8.92
[2H]C([2H])([2H])N(C/C=C/C(=O)N1CCN2C[C@H]1COc1cc3ncnc(Nc4ccc(Oc5ccn6ncnc6c5)c(C)c4)c3nc12)C([2H])([2H])[2H] [Compound 36, (E)-1-((10S)-4-((4-([1,2,4]triazolo[1,5-a]pyridin-7-yloxy)-3-methylphenyl)amino)-7,8,10,11-tetrahydro-9H-6,10-methanopyrimido[4′,5′:5,6]pyrido[3,2-b][1,4,7]oxadiazonin-9-yl)-4-(bis(methyl-d3)amino)but-2-en-1-one formic acid] | – | 9.92 | 1620 | 6.19
[2H]C([2H])([2H])N(C/C=C/C(=O)N1CCN2C[C@H]1COc1cc3ncnc(Nc4cc(C)c(Oc5ccn6ncnc6c5)cc4F)c3nc12)C([2H])([2H])[2H] [Compound 46, (E)-1-((10S)-4-((4-([1,2,4]triazolo[1,5-a]pyridin-7-yloxy)-2-fluoro-5-methylphenyl)amino)-7,8,10,11-tetrahydro-9H-6,10-methanopyrimido[4′,5′:5,6]pyrido[3,2-b][1,4,7]oxadiazonin-9-yl)-4-(bis(methyl-d3)amino)but-2-en-1-one] | – | 6.84 | 2470 | 7.04
[2H]C([2H])(/C=C/C(=O)N1CCN2C[C@H]1COc1cc3ncnc(Nc4cc(C)c(Oc5ccn6ncnc6c5)cc4F)c3nc12)N(C)C [Compound 58, (E)-1-((10S)-4-((4-([1,2,4]triazolo[1,5-a]pyridin-7-yloxy)-2-fluoro-5-methylphenyl)amino)-7,8,10,11-tetrahydro-9H-6,10-methanopyrimido[4′,5′:5,6]pyrido[3,2-b][1,4,7]oxadiazonin-9-yl)-4-(dimethylamino)but-2-en-1-one-4,4-d2] | 7.79 | 5.5 | 869 | –
[2H]C([2H])([2H])N(C([2H])([2H])[2H])C([2H])([2H])/C=C/C(=O)N1CCN2C[C@H]1COc1cc3ncnc(Nc4cc(C)c(Oc5ccn6ncnc6c5)cc4F)c3nc12 [Compound 59, (E)-1-((10S)-4-((4-([1,2,4]triazolo[1,5-a]pyridin-7-yloxy)-2-fluoro-5-methylphenyl)amino)-7,8,10,11-tetrahydro-9H-6,10-methanopyrimido[4′,5′:5,6]pyrido[3,2-b][1,4,7]oxadiazonin-9-yl)-4-(bis(methyl-d3)amino)but-2-en-1-one-4,4-d2] | 6.5 | 9 | 1380 | –
